Measured values: the NIST ThermoML archive (doi:10.1016/j.jct.2015.03.019)
Several values for one entry are separate records, joined by “and”; a condition that tells them apart may be missing. Equal values may be shown once. Numbers after ± are expanded uncertainties.

Assay: molar heat capacity at constant pressure
Conditions: 101.33 kPa, Crystal, Small (less than 1 g) adiabatic calorimetry

CC(C)(C)c1ccc(Oc2ccccc2)cc1 [4-tert-butylphenyl phenyl ether]
Conditions	molar heat capacity at constant pressure
5 K	0.671 ± 0.044 J/K/mol
7.93 K	2.627 ± 0.12 J/K/mol
8.1 K	2.719 ± 0.12 J/K/mol
8.28 K	3.035 ± 0.14 J/K/mol
8.43 K	3.06 ± 0.14 J/K/mol
8.59 K	3.268 ± 0.15 J/K/mol
8.75 K	3.459 ± 0.16 J/K/mol
8.9 K	3.675 ± 0.17 J/K/mol
9.05 K	3.725 ± 0.17 J/K/mol
9.2 K	3.958 ± 0.17 J/K/mol
9.49 K	4.365 ± 0.19 J/K/mol
9.63 K	4.573 ± 0.2 J/K/mol
9.78 K	4.881 ± 0.22 J/K/mol
9.92 K	5.097 ± 0.22 J/K/mol
10 K	4.906 ± 0.17 J/K/mol
10.28 K	5.488 ± 0.24 J/K/mol
10.56 K	5.961 ± 0.26 J/K/mol
10.85 K	6.419 ± 0.27 J/K/mol
11.15 K	6.884 ± 0.3 J/K/mol
12.02 K	8.298 ± 0.36 J/K/mol
12.32 K	8.896 ± 0.42 J/K/mol
12.61 K	9.395 ± 0.42 J/K/mol
12.91 K	9.977 ± 0.42 J/K/mol
13.21 K	10.48 ± 0.42 J/K/mol
13.51 K	11.06 ± 0.5 J/K/mol
13.81 K	11.64 ± 0.5 J/K/mol
14.11 K	12.22 ± 0.5 J/K/mol
14.41 K	12.72 ± 0.5 J/K/mol
14.71 K	13.3 ± 0.58 J/K/mol
15 K	13.89 ± 0.33 J/K/mol
15.02 K	13.97 ± 0.58 J/K/mol
15.32 K	14.55 ± 0.58 J/K/mol
15.63 K	15.05 ± 0.67 J/K/mol
15.94 K	15.71 ± 0.67 J/K/mol
16.25 K	16.3 ± 0.67 J/K/mol
16.56 K	16.96 ± 0.75 J/K/mol
16.87 K	17.63 ± 0.75 J/K/mol
17.18 K	18.13 ± 0.75 J/K/mol
17.49 K	18.96 ± 0.75 J/K/mol
17.8 K	19.54 ± 0.83 J/K/mol
18.12 K	20.12 ± 0.83 J/K/mol
18.43 K	20.79 ± 0.83 J/K/mol
18.74 K	21.29 ± 0.91 J/K/mol
19.06 K	21.95 ± 0.91 J/K/mol
19.37 K	22.7 ± 0.91 J/K/mol
19.68 K	23.36 ± 1 J/K/mol
20 K	23.95 ± 1 J/K/mol and 23.95 ± 0.58 J/K/mol
20.57 K	25.05 ± 0.42 J/K/mol
21.33 K	26.59 ± 0.44 J/K/mol
22.1 K	28.07 ± 0.47 J/K/mol
22.86 K	29.59 ± 0.48 J/K/mol
23.63 K	31.1 ± 0.51 J/K/mol
24.4 K	32.68 ± 0.53 J/K/mol
25 K	33.84 ± 0.75 J/K/mol
25.18 K	34.25 ± 0.55 J/K/mol
25.95 K	35.83 ± 0.57 J/K/mol
26.73 K	37.02 ± 0.58 J/K/mol
27.51 K	38.42 ± 0.6 J/K/mol
28.29 K	39.88 ± 0.62 J/K/mol
29.07 K	41.31 ± 0.64 J/K/mol
29.85 K	42.77 ± 0.66 J/K/mol
30 K	43.07 ± 0.83 J/K/mol
30.63 K	44.28 ± 0.67 J/K/mol
31.42 K	45.65 ± 0.68 J/K/mol
32.21 K	47 ± 0.71 J/K/mol
33 K	48.3 ± 0.72 J/K/mol
33.79 K	49.62 ± 0.74 J/K/mol
34.58 K	50.93 ± 0.76 J/K/mol
35 K	51.38 ± 0.58 J/K/mol
35.37 K	52 ± 0.77 J/K/mol
36.16 K	53.14 ± 0.79 J/K/mol
36.95 K	54.29 ± 0.81 J/K/mol
37.74 K	55.42 ± 0.82 J/K/mol
38.53 K	56.54 ± 0.84 J/K/mol
39.32 K	57.57 ± 0.86 J/K/mol
40 K	58.7 ± 0.67 J/K/mol
40.11 K	58.69 ± 0.55 J/K/mol
40.91 K	59.85 ± 0.56 J/K/mol
41.7 K	61.07 ± 0.57 J/K/mol
42.49 K	62.01 ± 0.57 J/K/mol
43.29 K	63.2 ± 0.59 J/K/mol
44.08 K	64.35 ± 0.6 J/K/mol
44.88 K	65.44 ± 0.61 J/K/mol
45 K	65.52 ± 0.42 J/K/mol
45.68 K	66.42 ± 0.62 J/K/mol
